# Laboratory results reported in patent US7119073B2, “Peptides and their use as inhibitors of hepatitis C virus ns3 protease” (Istituto Di Ricerche Di Biologia Molecolare P. Angeletti SpA, priority 2001, dated 2006).
# Molecular target: T1, NS3 protease domain complexed to a modified form of the NS4A peptide (Pep4AK) (Hepatitis C virus genotype 1b, UniProt P26663)
# T1 construct: NS3 protease domain (residues 1027–1206 of the HCV polyprotein)
# Assay: HCV NS3 protease domain/NS4A cofactor peptide assay (Assay B)
# Format: biochemical
# Conditions: NS3 protease domain/NS4A cofactor peptide assay; read-out: Assay B (IC50 class)
# T1 sequence (P26663 1027-1206, other chains not shown): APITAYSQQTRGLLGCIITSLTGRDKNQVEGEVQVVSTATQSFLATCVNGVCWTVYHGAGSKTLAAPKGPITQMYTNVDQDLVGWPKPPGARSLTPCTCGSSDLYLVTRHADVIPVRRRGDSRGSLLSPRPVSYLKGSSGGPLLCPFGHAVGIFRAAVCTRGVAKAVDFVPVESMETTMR
row,Compound,IC50 [µM]
1,CC(C)C[C@H](NC(=O)C1Cc2ccccc2N1)C(=O)N[C@@H](CC(F)F)C(=O)NCCc1c(F)cc(C(=O)O)cc1F (stereo partly shown) [Compound 709],< 100
2,CC(C)CC(NC(=O)c1ccccc1-c1ccccc1C(=O)O)C(=O)NC(CC(F)F)C(=O)NCCc1ccc(C(=O)O)cc1Cl (stereo not shown) [Compound 715],< 100
3,CC(C)CC(NC(=O)c1ccccc1-c1ccccc1C(=O)O)C(=O)NC(CS)C(=O)NCCc1ccccc1Cl (stereo not shown) [Compound 716],< 100
4,CC(C)CC(NC(=O)c1ccccc1-c1ccccc1C(=O)O)C(=O)NC(CS)C(=O)NCCc1ccc(Cl)cc1Cl (stereo not shown) [Compound 717],< 100
5,CC(C)CC(NC(=O)c1ccccc1-c1ccccc1C(=O)O)C(=O)NC(CC(F)F)C(=O)NCCc1c(F)cc(C(=O)O)cc1F (stereo not shown) [Compound 718],< 100
6,CCOC(=O)C=Cc1cccc(CCNC(=O)C(CC(F)F)NC(=O)C(CC(C)C)NC(=O)c2ccccc2-c2ccccc2C(=O)O)c1 (stereo not shown) [Compound 719],< 100
7,CC(C)CC(NC(=O)c1ccccc1-c1ccccc1C(=O)O)C(=O)NC(CC(F)F)C(=O)NCCc1cccc(NCC(=O)O)c1 (stereo not shown) [Compound 720],< 100
8,CCOC(=O)CNc1cccc(CCNC(=O)C(CC(F)F)NC(=O)C(CC(C)C)NC(=O)c2ccccc2-c2ccccc2C(=O)O)c1 (stereo not shown) [Compound 721],< 100

# Same assay, conditions: Table 2; NS3 protease domain/Pep4AK; read-out: Assay B
row,Compound,IC50 [µM]
1,COc1ccc(CCNC(=O)[C@H](CS)NC(=O)[C@H](CC(C)C)NC(=O)[C@H](CCC(=O)O)NC(=O)C2CCCCC2)cc1 [Compound 231],< 100
2,COc1ccc(CCNC(=O)[C@H](CS)NC(=O)[C@H](CC(C)C)NC(=O)[C@H](CCC(=O)O)NC(=O)C2CCCCCC2)cc1 [Compound 232],< 100
3,CC(C)C[C@H](NC(=O)[C@H](CCC(=O)O)NC(=O)CC1CCCCC1)C(=O)N[C@@H](CS)C(=O)NCCc1ccccc1Cl [Compound 234],< 100
4,CC(C)C[C@H](NC(=O)[C@H](CCC(=O)O)NC(=O)CCC1CCCC1)C(=O)N[C@@H](CS)C(=O)NCCc1ccccc1Cl [Compound 235],< 100
5,COc1ccc(CCNC(=O)[C@H](CS)NC(=O)[C@H](CC(C)C)NC(=O)[C@H](CCC(=O)O)NC(=O)CCC2CCCC2)cc1 [Compound 236],< 100
6,CC(C)C[C@H](NC(=O)[C@H](CCC(=O)O)NC(=O)N1CCOCC1)C(=O)N[C@@H](CS)C(=O)NCCc1ccccc1Cl [Compound 237],< 100
7,CC(C)C[C@H](NC(=O)[C@H](CCC(=O)O)NC(=O)CC1NC(=O)NC1=O)C(=O)N[C@@H](CS)C(=O)NCCc1ccc(Cl)cc1Cl (stereo partly shown) [Compound 238],< 100
8,CC(C)C[C@H](NC(=O)[C@H](CCC(=O)O)NC(=O)CCC(=O)O)C(=O)N[C@@H](CS)C(=O)NCCc1ccccc1Cl [Compound 239],< 100
9,CC(C)C[C@H](NC(=O)[C@H](CCC(=O)O)NC(=O)CC(C)(C)CC(=O)O)C(=O)N[C@@H](CS)C(=O)NCCc1ccccc1Cl [Compound 240],< 100
10,COc1ccc(CCNC(=O)[C@H](CS)NC(=O)[C@H](CC(C)C)NC(=O)[C@H](CCC(=O)O)NC(=O)CC(C)(C)CC(=O)O)cc1 [Compound 241],< 100
11,COc1ccc(CCNC(=O)[C@H](CS)NC(=O)[C@H](CC(C)C)NC(=O)[C@H](CCC(=O)O)NC(=O)C(C)(C)CCC(=O)O)cc1 [Compound 243],< 100
12,CC(C)C[C@H](NC(=O)[C@H](CCC(=O)O)NC(=O)CCCC(=O)O)C(=O)N[C@@H](CS)C(=O)NCCc1ccccc1Cl [Compound 244],< 100
13,CC(C)C[C@H](NC(=O)[C@H](CCC(=O)O)NC(=O)CC(C)CC(=O)O)C(=O)N[C@@H](CS)C(=O)NCCc1ccccc1Cl (stereo partly shown) [Compound 245],< 100
14,C=CCNC(=O)N[C@@H](CCC(=O)O)C(=O)N[C@@H](CC(C)C)C(=O)N[C@@H](CS)C(=O)NCCc1ccccc1Cl [Compound 246],< 100

# Further lines, results first:
row,IC50 [µM],Compound
1,< 100,CC(C)C[C@H](NC(=O)[C@H](CCC(=O)O)NC(=O)Nc1ccccc1)C(=O)N[C@@H](CS)C(=O)NCCc1ccccc1Cl [Compound 247]
2,< 100,CC(C)C[C@H](NC(=O)[C@H](CCC(=O)O)NC(=O)NCc1ccccc1)C(=O)N[C@@H](CS)C(=O)NCCc1ccc(Cl)cc1Cl [Compound 248]
3,< 100,CC(C)C[C@H](NC(=O)[C@H](CCC(=O)O)NS(=O)(=O)c1ccccc1)C(=O)N[C@@H](CS)C(=O)NCCc1ccccc1Cl [Compound 249]
4,< 100,COc1ccc(CCNC(=O)[C@H](CS)NC(=O)[C@H](CC(C)C)NC(=O)[C@H](CCC(=O)O)NS(=O)(=O)c2ccccc2)cc1 [Compound 250]
5,< 100,Cc1ccc(S(=O)(=O)N[C@@H](CCC(=O)O)C(=O)N[C@@H](CC(C)C)C(=O)N[C@@H](CS)C(=O)NCCc2ccccc2Cl)cc1 [Compound 251]
6,< 100,CC(C)C[C@H](NC(=O)[C@H](CCC(=O)O)NS(=O)(=O)c1cccs1)C(=O)N[C@@H](CS)C(=O)NCCc1ccccc1Cl [Compound 253]
7,< 100,COc1ccc(CCNC(=O)[C@H](CS)NC(=O)[C@H](CC(C)C)NC(=O)[C@H](CCC(=O)O)NS(C)(=O)=O)cc1 [Compound 254]
8,< 100,COc1ccc(CCNC(=O)[C@H](CS)NC(=O)[C@H](CC(C)C)NC(=O)[C@H](CCC(=O)O)NS(=O)(=O)c2ccc3ccccc3c2)cc1 [Compound 255]
9,< 100,CC(C)C[C@H](NC(=O)[C@H](CCC(=O)O)NS(=O)(=O)Cc1ccccc1)C(=O)N[C@@H](CS)C(=O)NCCc1ccc(Cl)cc1Cl [Compound 256]

# Same assay, conditions: Table 4; NS3 protease domain/Pep4AK; read-out: Assay B
row,IC50 [µM],Compound
1,< 100,CC[C@H](NC(=O)[C@H](CCC(=O)O)NC(=O)OCC(C)C)C(=O)N[C@@H](CS)C(=O)NCCc1ccccc1Cl [Compound 401]
2,< 100,CC(C)COC(=O)N[C@@H](CCC(=O)O)C(=O)N[C@@H](CC(F)F)C(=O)N[C@@H](CS)C(=O)NCCc1ccc(C(=O)O)cc1 [Compound 402]
3,< 100,CCC[C@H](NC(=O)[C@H](CCC(=O)O)NC(=O)OCC(C)C)C(=O)N[C@@H](CS)C(=O)NCCc1ccccc1Cl [Compound 405]
4,< 100,CCCC[C@H](NC(=O)[C@H](CCC(=O)O)NC(=O)OCC(C)C)C(=O)N[C@@H](CS)C(=O)NCCc1ccccc1Cl [Compound 407]
5,< 10,CC(C)COC(=O)N[C@@H](CCC(=O)O)C(=O)N[C@@H](CC1CCCCC1)C(=O)N[C@@H](CS)C(=O)NCCc1ccc(C(=O)O)cc1 [Compound 409]
6,< 100,CC(C)COC(=O)N[C@@H](CCC(=O)O)C(=O)N[C@H](C(=O)N[C@@H](CS)C(=O)NCCc1ccccc1Cl)C1CCCC1 [Compound 411]
7,< 100,CC(C)COC(=O)N[C@@H](CCC(=O)O)C(=O)N[C@@H](CCC(=O)O)C(=O)N[C@@H](CS)C(=O)NCCc1ccccc1Cl [Compound 412]
8,< 100,CC(C)COC(=O)N[C@@H](CCC(=O)O)C(=O)N[C@@H](CCC(=O)OCc1ccccc1)C(=O)N[C@@H](CS)C(=O)NCCc1ccccc1Cl [Compound 413]
9,< 100,CC(C)COC(=O)N[C@@H](CCC(=O)O)C(=O)N[C@@H](CCc1ccccc1)C(=O)N[C@@H](CS)C(=O)NCCc1ccccc1Cl [Compound 414]
10,< 100,CC(C)COC(=O)N[C@@H](CCC(=O)O)C(=O)NC1(C(=O)N[C@@H](CS)C(=O)NCCc2ccccc2Cl)Cc2ccccc2C1 [Compound 415]
11,< 100,CC(C)COC(=O)N[C@@H](CCC(=O)O)C(=O)N(C)[C@@H](CC(C)C)C(=O)N[C@@H](CS)C(=O)NCCc1ccccc1Cl [Compound 416]
12,< 100,CC(C)COC(=O)N[C@@H](CCC(=O)O)C(=O)N1Cc2ccccc2C[C@H]1C(=O)N[C@@H](CS)C(=O)NCCc1ccccc1Cl [Compound 417]
13,< 100,CC(C)COC(=O)NC(CCC(=O)O)C(=O)N1CCC1C(=O)NC(CS)C(=O)NCCc1ccccc1Cl (stereo not shown) [Compound 418]
14,< 100,CC(C)COC(=O)N[C@@H](CCC(=O)O)C(=O)N1C=CC[C@H]1C(=O)N[C@@H](CS)C(=O)NCCc1ccccc1Cl [Compound 419]
15,< 10,CC(C)COC(=O)N[C@@H](CCC(=O)O)C(=O)N1C2CCCCC2C[C@H]1C(=O)N[C@@H](CS)C(=O)NCCc1ccccc1Cl (stereo partly shown) [Compound 420]
16,< 100,CC(C)COC(=O)N[C@@H](CCC(=O)O)C(=O)N1c2ccccc2C[C@H]1C(=O)N[C@@H](CC(F)F)C(=O)NCCc1ccc(C(=O)O)cc1Cl [Compound 421]
17,< 100,CC(C)COC(=O)NC(CCC(=O)O)C(=O)N1C(C(=O)NC(CS)C(=O)NCCc2ccccc2Cl)CCC1c1ccccc1 (stereo not shown) [Compound 422]

row,Compound,IC50 [µM]
1,CC(C)COC(=O)N[C@@H](CCC(=O)O)C(=O)N[C@@H](CC1CC1)C(=O)N[C@@H](CS)C(=O)NCCc1ccccc1Cl [Compound 408],< 100
